# US8754242B2, “Herbicides” (Syngenta Crop Protection LLC, priority 2007, dated 2014)
# How the values were obtained:
# Format in all cases: in vivo
# [1] = tested on: Alopecurus myosuroides (ALOMY); test: Test Example 1 pre-emergence herbicidal activity; details: Alopecurus myosuroides, 480 h, rate 250 g/ha, evaluated 20 days later, read-out: Pre-emergence activity ALOMY (100=total damage to plant; 0=no damage to plant)
# Description: (§1) Monocotyledonous and dicotyledonous test plants were sown in standard soil in pots. After cultivation for one day (pre-emergence) or after 10 days cultivation (post-emergence) under controlled conditions in a glasshouse, the plants were sprayed with an aqueous spray solution derived from the formulation of the technical active ingredient in 0.6 ml acetone and 45 ml formulation solution containing 10.6% Emulsogen EL (Registry number 61791-12-6), 42.2% N-methylpyrrolidone, 42.2% dipropylene glycol monomethyl ether (Registry number 34590-94-8) and 0.2% X-77 (Registry number 11097-66-8). The test plants were then grown in a greenhouse under optimum conditions until, 15 days later for post-emergence and 20 days for pre-emergence, the test was evaluated (100=total damage to plant; 0=no damage to plant).
# (§2) Alopecurus myosuroides (ALOMY), Avena fatua (AVEFA), Lolium perenne (LOLPE), Setaria faberi (SETFA), Digitaria sanguinalis (DIGSA), Echinochloa crus-galli (ECHCG)
# Avena fatua (AVEFA) [2] = test: Test Example 1 pre-emergence herbicidal activity; details: Avena fatua, 480 h, rate 250 g/ha, evaluated 20 days later, read-out: Pre-emergence activity AVEFA (100=total damage to plant; 0=no damage to plant)
# Description: as §1, §2
# [3] = tested on: Digitaria sanguinalis (DIGSA); test: Test Example 1 pre-emergence herbicidal activity; details: Digitaria sanguinalis, 480 h, rate 250 g/ha, evaluated 20 days later, read-out: Pre-emergence activity DIGSA (100=total damage to plant; 0=no damage to plant)
# Description: as §1, §2
# [4] = tested on: Echinochloa crus-galli (ECHCG); test: Test Example 1 pre-emergence herbicidal activity; details: Echinochloa crus-galli, 480 h, rate 250 g/ha, evaluated 20 days later, read-out: Pre-emergence activity ECHCG (100=total damage to plant; 0=no damage to plant)
# Description: as §1, §2
# Lolium perenne (LOLPE) [5] = test: Test Example 1 pre-emergence herbicidal activity; details: Lolium perenne, 480 h, rate 250 g/ha, evaluated 20 days later, read-out: Pre-emergence activity LOLPE (100=total damage to plant; 0=no damage to plant)
# Description: as §1, §2
# Setaria faberi (SETFA) [6] = test: Test Example 1 pre-emergence herbicidal activity; details: Setaria faberi, 480 h, rate 250 g/ha, evaluated 20 days later, read-out: Pre-emergence activity SETFA (100=total damage to plant; 0=no damage to plant)
# Description: as §1, §2
# [7] = tested on: Alopecurus myosuroides (ALOMY); test: Test Example 1 post-emergence herbicidal activity; details: 360 h, rate 125 g/ha, evaluated 15 days later, read-out: Post-emergence activity ALOMY (100=total damage to plant; 0=no damage to plant)
# Description: as §1, §2
# Avena fatua (AVEFA) [8] = test: Test Example 1 post-emergence herbicidal activity; details: 360 h, rate 125 g/ha, evaluated 15 days later, read-out: Post-emergence activity AVEFA (100=total damage to plant; 0=no damage to plant)
# Description: as §1, §2
# [9] = tested on: Digitaria sanguinalis (DIGSA); test: Test Example 1 post-emergence herbicidal activity; details: 360 h, rate 125 g/ha, evaluated 15 days later, read-out: Post-emergence activity DIGSA (100=total damage to plant; 0=no damage to plant)
# Description: as §1, §2
# [10] = tested on: Echinochloa crus-galli (ECHCG); test: Test Example 1 post-emergence herbicidal activity; details: 360 h, rate 125 g/ha, evaluated 15 days later, read-out: Post-emergence activity ECHCG (100=total damage to plant; 0=no damage to plant)
# Description: as §1, §2
# Lolium perenne (LOLPE) [11] = test: Test Example 1 post-emergence herbicidal activity; details: 360 h, rate 125 g/ha, evaluated 15 days later, read-out: Post-emergence activity LOLPE (100=total damage to plant; 0=no damage to plant)
# Description: as §1, §2
# Setaria faberi (SETFA) [12] = test: Test Example 1 post-emergence herbicidal activity; details: 360 h, rate 125 g/ha, evaluated 15 days later, read-out: Post-emergence activity SETFA (100=total damage to plant; 0=no damage to plant)
# Description: as §1, §2
Structure (SMILES),pest or weed control at 250 g/ha [1] [%],pest or weed control at 250 g/ha (Avena fatua (AVEFA) [2]) [%],pest or weed control at 250 g/ha [3] [%],pest or weed control at 250 g/ha [4] [%],pest or weed control at 250 g/ha (Lolium perenne (LOLPE) [5]) [%],pest or weed control at 250 g/ha (Setaria faberi (SETFA) [6]) [%],pest or weed control at 125 g/ha [7] [%],pest or weed control at 125 g/ha (Avena fatua (AVEFA) [8]) [%],pest or weed control at 125 g/ha [9] [%],pest or weed control at 125 g/ha [10] [%],pest or weed control at 125 g/ha (Lolium perenne (LOLPE) [11]) [%],pest or weed control at 125 g/ha (Setaria faberi (SETFA) [12]) [%]
CCc1cc(C)cc(CC)c1C1=C(O)[C@H]2[C@@H](C1=O)[C@]1(C)CC[C@@]2(C)O1 [Example T7],100,80,80,90,100,90,100,90,70,90,90,90
"CCOC(=O)OC1=C(c2c(CC)cc(C)cc2CC)C(=O)[C@@H]2[C@H]1[C@H]1CC[C@@H]2O1 (racemic) [Example P18, carbonic acid (1RS,2SR,6RS,7SR)-5-oxo-4-(2,6-diethyl-4-methylphenyl)-10-oxatricyclo[5.2.1.0^2,6]-dec-3-en-3-yl ester ethyl ester]",100,100,100,100,100,100,90,50,70,100,80,70
CCc1cc(C)cc(CC)c1C1=C(O)[C@H]2[C@@H](C1=O)[C@@H]1CC[C@@]2(CO)O1 [Example T14],90,90,70,90,100,100,80,80,90,100,80,100
CCc1cc(C)cc(CC)c1C1=C(O)[C@@H]2[C@@H]3O[C@@H](C[C@H]3c3ccc(F)cc3F)[C@@H]2C1=O [Example T163],70,60,90,80,90,90,80,80,70,100,80,90
CCc1cc(C)cc(CC)c1C1=C(O)[C@@H]2[C@@H]3O[C@@H](C[C@H]3c3ccc(C)cc3)[C@@H]2C1=O (racemic) [Example T180],30,20,80,60,70,40,90,70,90,100,70,100
Cc1cc(C)c(C2=C(O)[C@@H]3[C@@H]4O[C@@H](C[C@H]4c4cccc(C#N)c4)[C@@H]3C2=O)c(C)c1 [Example T89],20,60,30,20,40,30,80,80,90,100,80,90
